# Measurements from US10030058B2, “Modulating gamma-C-cytokine activity” (Bioniz, LLC, priority 2015, dated 2018).
# Peptide text beside a SMILES is read from it.
# System: T-cells in HAM/TSP patient PBMC culture
# Assay: Ex vivo spontaneous T-cell proliferation assay using HAM/TSP peripheral blood
# Type: cell-based, human
# Conditions: FIG. 4D
# Method: Proliferation assays were performed on HAM/TSP patient blood samples with and without the addition of BNZ-γ. These assays evaluated the ability of BNZ-γ to block the function of cytokines, such as IL-2 and IL-15, present in the ex vivo HAM/TSP patient blood culture and prevent spontaneous T-cell proliferation in these samples.
# In an ex vivo spontaneous T-cell proliferation assay, PBMC from HAM/TSP patient was cultured at 1×10(6) cells per well of a 96 well plate in RPMI-10% FCS. Increasing concentrations of BNZ-γ peptide were added to each well. As a control, an irrelevant peptide was used in similar fashion. The cells were incubated in a 37° C. CO2 incubator for 3, 4, and 6 days. The amount of 1 uCi of ^3H-thymidine was added to the cells. After an additional 6 hour incubation, cells were harvested their proliferation rate was measured. As indicated in FIG. 4A-FIG. 4D, BNZ-γ peptide inhibits the spontaneous proliferation of T-cells in HAM/TSP culture at a concentration of about 1 ug/ml.
# Other immunological markers were additionally measured in this assay. The percentage of the viral specific CD8 cells was measured during the ex vivo culture using viral protein tetramers. The population of CD4+CD25+ cells, a marker of T-cell activation, as well as Ki67 staining, a marker of T-cell proliferation, was monitored in a flow cytometry assay.
compound,measurement,value
"CC[C@H](C)[C@H](N)C(=O)N[C@@H](CCCCN)C(=O)N[C@@H](CCC(=O)O)C(=O)N[C@@H](Cc1ccccc1)C(=O)N[C@@H](CC(C)C)C(=O)N[C@@H](CCC(N)=O)C(=O)N[C@@H](CCCNC(=N)N)C(=O)N[C@@H](Cc1ccccc1)C(=O)N[C@H](C(=O)N[C@@H](Cc1c[nH]cn1)C(=O)N[C@H](C(=O)N[C@H](C(=O)N[C@@H](CCC(N)=O)C(=O)N[C@@H](CO)C(=O)N[C@H](C(=O)N[C@H](C(=O)N[C@@H](CC(N)=O)C(=O)N[C@H](C(=O)N[C@@H](CO)C(=O)O)[C@@H](C)O)[C@@H](C)CC)[C@@H](C)CC)C(C)C)[C@@H](C)CC)[C@@H](C)CC [BNZ-γ, I-K-E-F-L-Q-R-F-I-H-I-V-Q-S-I-I-N-T-S] (H-IKEFLQRFIHIVQSIINTS-OH)",percent of live cells by Guava staining,not impacted
